According to US5342834A, “Method for androgen supplementation” (priority 1992, dated 1994):
“Also recorded” adds a separate entry of the source.

Assays:
[1] = background statement; cited from earlier work
[2] = Metabolism (decrease of steroid level) in incubation with rat liver microsomes; type: in vitro ADME
Experimental: (§1) To prepare rat liver microsomes and cytosol, thawed livers were homogenized in 4 vol. of TED buffer (10mM Tricine, 1.5 mM EDTA, 1 mM dithiothreitol, pH 7.4) using a glass homogenizer and a loosefitting Teflon piston for nine strokes with intermittent cooling. This and all subsequent steps were performed at 4° C. The homogenate was spun at 13000×g for 30 min in a Sorvall refrigerated centrifuge. The supernatant fraction was recentrifuged at 13000×g for another 30 min. The resulting supernatant fraction (13K supernatant) was centrifuged at 105,000×g using a Beckman Ultracentrifuge (Model L) for 60 min. The 105K supernatant (cytosol) was saved. The microsomal pellet was resuspended in TED buffer, and spun down again at 105,000×g. The resulting pellet is known as the 105K pellet of the microsome fraction (or "microsome") .
(§2) Incubation mixtures consisted of 52 nmol of unlabeled steroid (T, 7MNT or 19NT), approximately 40,000 CPM of the corresponding tritiated steroid and 5 umol of NADPH in 0.2 ml TED buffer (pH 7.4). This was incubated for 10 min at 37° C. in a constant temperature water bath. Reaction was initiated by the addition of 0.8 ml of either 13K supernatant, microsomes or cytosol, containing 7.05, 0.62 or 5.64 mg/ml of protein, respectively. Incubations were quenched with 2 ml of ethyl acetate, vortexed briefly, and frozen in a dry ice-alcohol bath. The ethyl acetate was separated from the frozen aqueous phase. Extraction was performed again in the same way. The combined organic phase was evaporated and the remaining steroids were analyzed.
In preparation for the isolation and identification of unlabelled steroid metabolites in the microsome preparations, 360 μg of 7MNT were dispensed into 24 tubes in parallel with identical tubes containing ^3 H-labeled 7MNT to be used as marker steroid. The mixtures were incubated for 60 min at 37° C., extracted twice with 2 ml of ethyl acetate, taken to dryness, redissolved in a mixture of dichloromethane/methanol (1:1, v/v) and quantitatively applied to silica gel coated TLC plates along with synthetically prepared suspected metabolites of radioactive 7MNT in a parallel lane. The plates were developed with chloroform/methanol (95:5, v/v). Spots corresponding to the radioactive marked spots were eluted with ethyl acetate and taken to dryness.
(§3) For isolation of radioactive metabolites, the procedure was the same as for unlabeled metabolites, except that each tube contained 50,000 CPM of ^3 H-labeled 7MNT.
(§4) In this series of experiments, the decreases in the levels of testosterone,19-nortestosterone, and 7MNT were followed over a two-hour period of incubation with microsomal or cytosolic fractions of rat liver. […] Catabolism of 19NT was maximum at 30 min, with no further change beyond that, leaving a persistent unmetabolized residue of about 20 percent of the added steroid. After 30 min of incubation, 85 percent of the 7MNT remained unaltered; forty percent of the 7MNT was recovered after 2h.

[3] = Metabolism (decrease of steroid level) in incubation with rat liver cytosol; type: in vitro ADME; details: for remaining at 2 h: 2h incubation, read-out: steroid remaining unmetabolized / recovered
Experimental: as §1, §2
The procedure used for the cytosol preparations was the same as that for microsomes, except that incubations were carried out for 90 min.
as §3, §4

[4] = Metabolism (5α reduction) of 3H-androgens by rat ventral prostate homogenate; type: in vitro ADME; details: for metabolism / 5α reduction in prostate (in words): prostate homogenate; for metabolised at 0.5 h: rat, ventral prostate homogenate, ventral prostate, androgen = 100%, 30 min incubation, read-out: Conversion of 5α reduced metabolites: 5α-dihydro-steroid
Experimental: To study metabolism in rat prostate, ventral prostates (1 g) were collected in ice-cold saline. All subsequent operations were carried out at 0°-4° C. The tissues were washed three times with homogenizing buffer (50 mM tris, 1.5 mM EDTA, 1 mM dithiothreitol and 10% glycerol, pH 7.5) and then homogenized in 4 vol. of the same buffer using an Ultra-turrax at a setting of 6. The prostates were given three 10 seconds bursts with intermittent cooling. The resulting homogenate was passed through four layers of cheesecloth and the filtrate was collected.
Incubation mixtures consisted of 50 nmol of unlabeled steroid, 40,000 CPM of the corresponding tritiated steroid and 1 μmol of NADPH in 0.2 ml of the buffer. The mixture was equilibrated for 10 min at 37° C. Reaction was started by adding 0.8 ml of homogenate (5.3 mg/ml protein). After 30 min of incubation, the mixture was cochromatographed with authentic steroids selected as possible metabolites.

[5] = Metabolism (5α reduction) of 3H-androgens by rat epididymis; type: in vitro ADME; details: for metabolised: rat, epididymis homogenate, pH 7.4, androgen = 100%, read-out: Conversion of 5α reduced metabolites: Diols
Experimental: The metabolism of T, 19NT and 7MNT by rat epididymis was also studied. Collected epididymides were processed as described for prostate. Incubations were performed in Tricine-buffer pH 7.4 as used for liver incubations. Thin layer chromatography of metabolic mixtures and standards was performed as described for prostate preparations.

[6] = Metabolism by rat liver 13K supernatant fraction; type: in vitro ADME; details: 30 min, 37° C., system enriched with NADPH
Experimental: as §1
as §2, with “Incubations were quenched with 2 ml of ethyl acetate, vortexed briefly, and frozen in a dry ice-alcohol bath. The ethyl acetate was separated from the frozen aqueous phase. Extraction was performed again in the same way.” left out, “analyzed. […]” for “analyzed.”

[7] = Androgenic potency
[8] = Non-androgenic (e.g. progestational) activity

Row | Structure (SMILES) | androgen potency versus testosterone (in words) [1] | metabolism in microsomes (in words) [2] | time before which steroid was completely metabolized ([2]; earliest aliquot taken at 15 min) [min] | remaining at 2 h [3] [%] | metabolism / 5α reduction in prostate (in words) [4] | metabolised at 0.5 h [4] [%] | metabolism / 5α reduction in epididymis (in words) [5] | metabolised [5] [%] | remaining at 0.5 h ([2]; after 30 min of incubation, read-out: steroid remaining unaltered) [%] | steroid recovered ([2]; after 2h) | metabolism in cytosol (in words) [3] | metabolism by 13K supernatant (in words) [6] | androgen potency (in words) [7] | non-androgenic activity (in words) [8] | persistent unmetabolized residue of the added steroid ([2]; beyond 30 min of two-hour incubation) | time of maximum catabolism ([2]; two-hour incubation) [min]
1 | C[C@]12CCC(=O)C[C@@H]1CC[C@@H]1[C@@H]2CC[C@]2(C)[C@@H](O)CC[C@@H]12 [DHT, 5α-dihydrotestosterone] | much more potent androgen than testosterone |  |  |  |  |  |  |  |  |  |  |  |  |  |  | 
2 | C[C@]12CC[C@H]3[C@@H](CCC4=CC(=O)CC[C@@]43C)[C@@H]1CC[C@@H]2O [T, testosterone] |  | completely metabolized by the microsomes before the earliest aliquot was taken | < 15 | ~12 | nearly half of the added T was reduced to 5α-DHT | 48 | converted to their respective reduced A ring metabolites | 86 |  |  |  |  |  |  |  | 
3 | C[C@@H]1CC2=CC(=O)CC[C@@H]2[C@H]2CC[C@]3(C)[C@@H](O)CC[C@H]3[C@@H]21 [7MNT, 7α-methyl-19-nortestosterone] |  | After 30 min of incubation, most of the 7MNT was retrieved unaltered; also recorded: Two significant 7α-methylated metabolites were observed: a less polar one representing the 3,17-dione, and a more polar one in the region of the diols or triols; also recorded: An additional quantitatively minor polar metabolite was also detected |  |  | substantially no 5α-dihydro product was formed in either tissue; also recorded: remained unmetabolized; also recorded: did not reduce or otherwise metabolize 7MNT; also recorded: not converted to the 5α-dihydro product |  | substantially no 5α-dihydro product was formed in either tissue; also recorded: epididymis did not reduce or otherwise metabolize 7MNT |  | 85 | forty | Half of the starting 7MNT was recovered after 2h incubation; also recorded: generated at least one metabolite that was more polar than the parent compound | relatively resistant to metabolism under these incubation conditions; also recorded: Two metabolites, tentatively identified as 7α-methyl-5β-estrane-3, 17β-diol and 7α-methyl-estr-4-ene-3, 17-dione were found; also recorded: A minor highly polar metabolite was also observed | high potency | lack of significant non-androgenic activity |  | 
4 | C[C@]12CC[C@H]3[C@@H](CCC4=CC(=O)CC[C@@H]43)[C@@H]1CC[C@@H]2O [19NT, 19-nortestosterone] |  | qualitatively similar to that of T, though slower |  | 40 | metabolized to the reduced product more slowly than testosterone | 22 | converted to their respective reduced A ring metabolites; also recorded: metabolized more slowly than T | 57 |  |  | still slower |  |  |  | about 20% | 30
